Data taken from patent US5462927A, “Peptides aiding nerve regeneration” (The Administrators of the Tulane Educational Fund, priority 1992, dated 1995).
Ends that are not written are not given here.

Tested on: crushed sciatic nerve
Experiment: Sensorimotor function test (sciatic nerve regeneration assay, foot-flick response to thermal pain)
Type: in vivo, rat
Conditions: s.c. every 24 hr for approximately 20-25 days; head prints only 'μG/24 HRS'; vs 0.9% NaCl control
Method: Female, Sprague-Dawley rats (Charles River Breeding Labs) were used at an age of 7-8 weeks (120-140 g). Under ether anesthesia, the right sciatic nerve was carefully exposed and crushed with constant pressure, hemostatic forceps for 30 sec prior to closure and suturing of the incision. After surgery, the animals were randomly assigned to treatment groups of 10. The test peptides were administered s.c. in 0.9% NaCl in a vol of 0.1 ml. NaCl (0.9%) served as the control. Injections were started immediately after surgery and given every 24 hr thereafter for approximately 20-25 days. The criterion of sciatic nerve regeneration was based on the recovery of the foot-flick response to thermal pain. Beginning 48 hr after surgery, the rats were tested five days a week for the ability to withdraw, from a heat source, the paw innervated by the crushed nerve. All sensorimotor testing was performed between 1:00 and 3:00 p.m. Specifically, the rat was immobilized by wrapping in a towel, and the sole of the lesioned limb was placed over the aperture of a modified d'Amour apparatus. The time required to withdraw the foot was recorded to the nearest 0.1 of sec using a digital stopwatch. If no response occurred by 5 sec, the test was terminated to avoid tissue damage. The observe measuring the foot-flick response was blind to the treatment group being tested. All animals were acclimatized to the testing procedure prior to surgery. Baseline values were obtained by determining the response time for the unlesioned limb.

Row | Compound | % Reduction of Recovery Time
1 | CCCC[C@H](N)C(=O)N[C@@H](CCC(N)=O)C(=O)N[C@@H](Cc1c[nH]cn1)C(=O)N[C@@H](Cc1ccccc1)C(=O)N[C@@H](CCCNC(=N)N)C(=O)N[C@@H](Cc1c[nH]c2ccccc12)C(=O)NCC(N)=O [BIM-22010, NLeu--Gln--His--Phe--Arg--Trp--Gly--NH2] | 13%
2 | AQYFRWG-NH2 [BIM-22016, L--Ala--Gln--Tyr--Phe--Arg--Trp--Gly--NH2] | 13%
